Experimental data taken from patent publication US20170050957A1, “4-AMINO-6-(HETEROCYCLIC)PICOLINATES AND 6-AMINO-2-(HETEROCYCLIC)PYRIMIDINE-4-CARBOXYLATES AND THEIR USE AS HERBICIDES” (Dow AgroSciences LLC, priority 2013, published 2017).
Read-outs that look alike come from different tables or passages of the source.

Tests used:
[1] = system: Key Grass and Sedge Weeds as well as Grass Crops; test: Post-emergent Test II herbicidal activity (Table 16); type: in vivo; conditions: post-emergence, 336 h, 14 d; for pest or weed control at 35 g/ha: 35 g ai/ha; for pest or weed control at 70 g/ha: 70 g ai/ha; for pest or weed control at 140 g/ha: 140 g ai/ha
Procedure, shortened: (§1)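 Plants at first-second true leaf stage, grown 7-21 d in greenhouse (~15 h photoperiod, 23-29 °C day), were track-sprayed at 187 L/ha with compound in acetone/DMSO/water/isopropanol/crop oil/Triton X-155 at a high rate plus 1/2× to 1/16× dilutions. Injury scored visually after 14 d versus untreated plants, 0 (none) to 100% (complete kill).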

[2] = system: Key Broadleaf Weed and Crop Species; test: Post-emergent Test II herbicidal activity (Table 15); type: in vivo; conditions: post-emergence, 336 h, 14 d; for pest or weed control at 35 g/ha: 35 g ai/ha; for pest or weed control at 70 g/ha: 70 g ai/ha; for pest or weed control at 140 g/ha: 140 g ai/ha
Procedure, shortened: as §1

[3] = Cyperus esculentus, yellow nutsedge (Cyperus esculentus), read-out: Visual Growth Reduction (%) 14 Days After Application, CYPES
[4] = Echinochloa crus-galli, barnyardgrass (Echinochloa crus-galli), read-out: Visual Growth Reduction (%) 14 Days After Application, ECHCG
[5] = Oryza sativa, rice (Oryza sativa), read-out: Visual Growth Reduction (%) 14 Days After Application, ORYSA
[6] = Setaria faberi, giant foxtail (Setaria faberi), read-out: Visual Growth Reduction (%) 14 Days After Application, SETFA
[7] = Triticum aestivum, wheat, spring (Triticum aestivum), read-out: Visual Growth Reduction (%) 14 Days After Application, TRZAS
[8] = Zea mays, maize, corn (Zea mays), read-out: Visual Growth Reduction (%) 14 Days After Application, ZEAMX
[9] = Abutilon theophrasti, velvetleaf (Abutilon theophrasti), read-out: Visual Growth Reduction (%) 14 Days After Application, ABUTH
[10] = Amaranthus retroflexus, redroot pigweed (Amaranthus retroflexus), read-out: Visual Growth Reduction (%) 14 Days After Application, AMARE
[11] = Brassica napus, oilseed rape, canola (Brassica napus), read-out: Visual Growth Reduction (%) 14 Days After Application, BRSNN
[12] = Chenopodium album, lambsquarters (Chenopodium album), read-out: Visual Growth Reduction (%) 14 Days After Application, CHEAL
[13] = Euphorbia heterophylla, wild poinsettia (Euphorbia heterophylla), read-out: Visual Growth Reduction (%) 14 Days After Application, EPHHL
[14] = Helianthus annuus, sunflower (Helianthus annuus), read-out: Visual Growth Reduction (%) 14 Days After Application, HELAN

SMILES	pest or weed control at 35 g/ha [1, 3] [%]	pest or weed control at 70 g/ha [1, 3] [%]	pest or weed control at 140 g/ha [1, 3] [%]	pest or weed control at 35 g/ha [1, 4] [%]	pest or weed control at 70 g/ha [1, 4] [%]	pest or weed control at 140 g/ha [1, 4] [%]	pest or weed control at 35 g/ha [1, 5] [%]	pest or weed control at 70 g/ha [1, 5] [%]	pest or weed control at 140 g/ha [1, 5] [%]	pest or weed control at 35 g/ha [1, 6] [%]	pest or weed control at 70 g/ha [1, 6] [%]	pest or weed control at 140 g/ha [1, 6] [%]	pest or weed control at 35 g/ha [1, 7] [%]	pest or weed control at 70 g/ha [1, 7] [%]	pest or weed control at 140 g/ha [1, 7] [%]	pest or weed control at 35 g/ha [1, 8] [%]	pest or weed control at 70 g/ha [1, 8] [%]	pest or weed control at 140 g/ha [1, 8] [%]	pest or weed control at 35 g/ha [2, 9] [%]	pest or weed control at 70 g/ha [2, 9] [%]	also measured
COC(=O)c1nc(-c2ccc(Cl)c3[nH]ccc23)c(F)c(N)c1Cl [Compound 1.43]	0 to 29	0 to 29	0 to 29	0 to 29	0 to 29	0 to 29	0 to 29	0 to 29	0 to 29	0 to 29	0 to 29	0 to 29	0 to 29	0 to 29	0 to 29	0 to 29	0 to 29	0 to 29	0 to 29	0 to 29	pest or weed control at 140 g/ha [2, 9]: 60 to 74%; pest or weed control at 35 g/ha [2, 10]: 95 to 100%; pest or weed control at 70 g/ha [2, 10]: 95 to 100%; pest or weed control at 140 g/ha [2, 10]: 95 to 100%; pest or weed control at 35 g/ha [2, 11]: 0 to 29%; pest or weed control at 70 g/ha [2, 11]: 0 to 29%; pest or weed control at 140 g/ha [2, 11]: 0 to 29%; pest or weed control at 35 g/ha [2, 12]: 75 to 84%; pest or weed control at 70 g/ha [2, 12]: 85 to 94%; pest or weed control at 140 g/ha [2, 12]: 85 to 94%; pest or weed control at 35 g/ha [2, 13]: 0 to 29%; pest or weed control at 70 g/ha [2, 13]: 0 to 29%; pest or weed control at 140 g/ha [2, 13]: 30 to 44%; pest or weed control at 35 g/ha [2, 14]: 60 to 74%; pest or weed control at 70 g/ha [2, 14]: 75 to 84%; pest or weed control at 140 g/ha [2, 14]: 75 to 84%
COC(=O)c1nc(-c2ccc(Cl)c3cc[nH]c23)c(F)c(N)c1Cl [Compound 1.46]	0 to 29	0 to 29	0 to 29	0 to 29	0 to 29	0 to 29	0 to 29	0 to 29	0 to 29	0 to 29	0 to 29	0 to 29	0 to 29	0 to 29	0 to 29	0 to 29	0 to 29	0 to 29	0 to 29	0 to 29	pest or weed control at 140 g/ha [2, 9]: 0 to 29%; pest or weed control at 35 g/ha [2, 10]: 0 to 29%; pest or weed control at 70 g/ha [2, 10]: 0 to 29%; pest or weed control at 140 g/ha [2, 10]: 60 to 74%; pest or weed control at 35 g/ha [2, 11]: 0 to 29%; pest or weed control at 70 g/ha [2, 11]: 0 to 29%; pest or weed control at 140 g/ha [2, 11]: 0 to 29%; pest or weed control at 35 g/ha [2, 12]: 75 to 84%; pest or weed control at 70 g/ha [2, 12]: 85 to 94%; pest or weed control at 140 g/ha [2, 12]: 95 to 100%; pest or weed control at 35 g/ha [2, 13]: 0 to 29%; pest or weed control at 70 g/ha [2, 13]: 0 to 29%; pest or weed control at 140 g/ha [2, 13]: 0 to 29%; pest or weed control at 35 g/ha [2, 14]: 0 to 29%; pest or weed control at 70 g/ha [2, 14]: 30 to 44%; pest or weed control at 140 g/ha [2, 14]: 45 to 59%
